Type in all cases: in vivo, human
In one test the test system is CFTR. Briefly: Transepithelial potential difference (TEPD) chloride conductance, Phase 2 cystic fibrosis study. The note with it: 15 CF patients. Here is the method:
The measurement of transepithelial potential difference (TEPD), also known as nasal potential difference, provides a sensitive evaluation of sodium and chloride transport directly in secretory epithelial cells via assessment of transepithelial bioelectric properties (Knowles et al., 1981, N. Engl. J. Med. 305(25):1489-95; Knowles et al., 1995, Hum. Gene Ther. 6:445). TEPD is performed in each nostril using standardized techniques (Standaert et al., 2004, Ped. Pulm. 37:385-92). In the procedure, a small plastic catheter is used to assess electrical differences across the outer cell membrane of nasal mucosa cells in the nostril. TEPD values are expressed in millivolts, or mV. A chloride conductance equal to or more electrically negative than −5.0 mV is generally considered to be in the normal range. […] TEPD assessments can also be made on rectal epithelial cells and lower respiratory epithelial cells. Because of the role of the CFTR protein in transporting chloride ions across cell membranes, and because of the absence of this protein, cystic fibrosis patients have an abnormal TEPD chloride conductance. As an endpoint, TEPD has the advantage that it can detect chloride transport changes that are a quantitative integration of the presence, functional activity, and apical location of the CFTR in airway cells. Furthermore, it is a direct measure of CFTR activity that is not likely to be affected by supportive or palliative treatments for CF (with the possible exception of systemically administered aminoglycoside antibiotics). Of importance is evidence that TEPD values can correlate with the degree of pulmonary dysfunction and radiographic abnormality (Ho et al., 1997, Eur. Respir. J. 10(9):2018-22; Fajac et al., 1998, Eur. Respir. J 12(6):1295-300; Sermet-Gaudelus et al., 2005, Am. J. Respit. Crit. Care Med. 171(9):1026-1031). […] Under baseline conditions, TEPD-assessed chloride channel activity is very unlikely to normalize spontaneously in patients with CF; any observed improvements in TEPD-assessed chloride channel activity are expected to specifically denote pharmacological activity of CFTR-correcting therapies. […]
Clinical endpoints were evaluated using the procedures set forth above. […] Pulmonary tests, including FEV1, FVC and MEF25-75, were measured prior to treatment, on day −1 of Cycle 2, on day 13 or 14 of Cycle 1 and day 13 or 14 of Cycle 2 in the study being conducted in Israel and the same parameters were measured prior to treatment and on day 13 or 14 of Cycle 2 in the study being conducted in the United States. […]

The nature of test [1]: Body weight, Phase 2 cystic fibrosis study. The source says:
3-[5-(2-Fluoro-phenyl)-[1,2,4]oxadiazol-3-yl]-benzoic acid was provided in a formulation described herein.
Statistically significant results and positive trends for secondary endpoints were also observed. In particular, although the trials were not been powered to detect statistical significant changes in secondary endpoints, statistically significant improvements from study entry to the end of the higher-dose treatment cycle in the patients' mean FEV1, FVC and weight were observed.

Test [2] relates to patients with nonsense-mutation-mediated cystic fibrosis. Briefly: Investigator-asked changes in cystic fibrosis symptoms, Phase 2 studies. The source says: In addition, although changes in patient's symptoms were not formally measured through the use of a quality-of-life questionnaire, trial investigators were requested to ask about changes in patients' cystic fibrosis symptoms. In the 15 patients included in the interim analysis, 6 reported general improvements in well being, 6 reported decrease in cough and 10 reported decreased mucus thickness and easier clearing of mucus.
The device was used to obtain the data set forth in FIG. 2 and will be used to offer substantial supplementary data regarding the clinical benefits of 3-[5-(2-fluoro-phenyl)-[1,2,4]oxadiazol-3-yl]-benzoic acid during Phase 3 testing in CF. Existing informally collected symptom data from the Phase 2 studies of 3-[5-(2-fluoro-phenyl)-[1,2,4]oxadiazol-3-yl]-benzoic acid support this concept. […] Without being limited by theory, based on the hypothesis that 3-[5-(2-fluoro-phenyl)-[1,2,4]oxadiazol-3-yl]-benzoic acid-mediated induction of CFTR function would reduce airway obstruction and inflammation, a decrease in cough frequency could serve as a symptomatic integration of these pharmacological effects and might offer a more accurate and quantitative assessment than verbal patient reporting.

Where [3] appears, read: higher dose level (10, 10, 20 mg/kg TID, 14 days).
Where [4] appears, read: lower dose level (4, 4, 8 mg/kg TID, 14 days).
[5] abbreviates: of 15 CF patients in interim analysis.

For the compound `O=C(O)c1cccc(-c2noc(-c3ccccc3F)n2)c1` [3-[5-(2-fluoro-phenyl)-[1,2,4]oxadiazol-3-yl]-benzoic acid], in the test with CFTR (setting [3]), the “Mean change in TEPD chloride conductance, best of nostrils” value is on record as −6.4 mV and the “Mean change in TEPD chloride conductance, mean of both nostrils” value is reported as −4.4 mV. For the same compound, in the test with CFTR (setting [4]), the “Mean change in TEPD chloride conductance, best of nostrils” value was −9.0 mV and the “Mean change in TEPD chloride conductance, mean of both nostrils” value was −6.7 mV. Moreover, the “Weight, End of Higher Dose Treatment” value in test [1] (end of higher-dose cycle (10, 10, 20 mg/kg TID), study entry 58.3 kg) is on record as 59.0 kg. Further, the “Weight, Change” value in test [1] (study entry to end of higher dose treatment) was 0.7 kg. Further, in test [2] (setting [5]), the “Patients reporting decrease in cough” value came to 6; the “Patients reporting decreased mucus thickness and easier clearing of mucus” value is 10; the “Patients reporting general improvements in well being” value is recorded as 6. Further, the Patient-described on-study coughing entry in test [2] (several patients, informally collected symptom data, Phase 2 studies) is “decreases in coughing”.
